Assay results taken from PMC8314276, “A Commercial Extract of Cyanotis arachnoidea Roots as a Source of Unusual Ecdysteroid Derivatives with Insect Hormone Receptor Binding Activity” (Journal of Natural Products, 2021).
pIC50: −log10 of the molar value. Like-named read-outs stand apart in the source and are kept apart here.

How the values were obtained:
[1] = target: T1, insect ecdysteroid receptor (EcR) (Spodoptera frugiperda, UniProt Q8MWR2); test: EcR binding assay ([3H]PonA displacement in Sf-9 cells); conditions: for IC50 / pIC50: inhibition of [3H]PonA binding; for IC50: Sf-9 cell suspension, 25 °C, 30 min, probit analysis; for inhibition at 25 µM: read-out: inh% at 25 μM; for pIC50: IC50, EcR binding; for pIC50 / EcR binding activity in words: Sf-9 cells; for EcR binding activity in words: [3H]PonA binding; for EcR binding potency/affinity relative to 20E: fold higher than 20E
T1 construct: To an Sf-9 cell suspension (400 μL; (2.0–3.0) × 10^6 cells/mL) in a disposable culture tube; endogenous in cells; host or cells: Sf-9 cells
T1 sequence (Q8MWR2 1-403): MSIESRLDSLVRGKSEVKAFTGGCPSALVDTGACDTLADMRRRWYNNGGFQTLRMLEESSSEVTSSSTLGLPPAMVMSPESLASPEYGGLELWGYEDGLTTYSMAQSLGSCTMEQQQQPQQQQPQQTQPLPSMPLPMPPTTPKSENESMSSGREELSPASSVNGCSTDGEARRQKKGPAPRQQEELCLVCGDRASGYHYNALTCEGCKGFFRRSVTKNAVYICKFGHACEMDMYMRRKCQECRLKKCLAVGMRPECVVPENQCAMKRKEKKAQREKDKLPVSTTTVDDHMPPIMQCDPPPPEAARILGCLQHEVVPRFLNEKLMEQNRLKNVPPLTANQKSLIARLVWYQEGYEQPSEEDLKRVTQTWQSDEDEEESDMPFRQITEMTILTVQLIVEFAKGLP
Description: Tritiated PonA ([^3H]PonA; 3.5 TBq/mmol) was custom synthesized by American Radiolabeled Chemicals, Inc. (St. Louis, MO, USA). A stock solution of [^3H]PonA (30 000 dpm/μL, ∼0.1 μM) was prepared in 70% aqueous EtOH. Cold PonA and 20E were obtained from Enzo Biochem Inc. (New York, NY, USA) and Sigma-Aldrich Co. (St. Louis, MO, USA), respectively. Tebufenozide was obtained from stock samples. All test compounds were dissolved in DMSO. An Sf-9 cell line was cultured in EX-CELL 420 medium (SAFC Biosciences, Inc., Lenexa, KS, USA) supplemented with 10% fetal bovine serum.
The binding assay was performed as described previously with some modifications.[43],[44] To an Sf-9 cell suspension (400 μL; (2.0–3.0) × 10^6 cells/mL) in a disposable culture tube (12 mm × 75 mm) was added a test compound solution (1 μL), followed by a [^3H]PonA solution (2 μL, 60 000 dpm). After incubation at 25 °C for 30 min, the cell suspension was diluted with water (3 mL) and filtered through a glass fiber filter GF/B (25 mm; Whatman plc, Maidstone, UK). The filter was washed with water (2 × 3 mL), dried, and transferred to a glass vial. To the vial were added 3 mL of Insta-Gel Plus (PerkinElmer Inc., Waltham, MA, USA), and the radioactivity was measured with an LSC-8000 counter (Aloka, Tokyo, Japan). DMSO and PonA (final concentration: 2.7 μM) were used to determine the total and nonspecific binding, respectively. The test compounds were first screened at 25 μM, and the compounds with an inhibition rate of ≥50% were subjected to concentration–response experiments. The 50% inhibition concentration for [^3H]PonA binding [IC50 (M)] was determined using probit analysis,[45] and the logarithm of its reciprocal, pIC50, was used as the index of the binding affinity.

EcR = target: T2, EcR (Spodoptera frugiperda, UniProt Q8MWR2); test: Reporter gene assay (hsp27 ecdysone response element/firefly luciferase) in Sf-9 cells; format: cell-based, insect; conditions: for agonistic activity in reporter gene assay at 0.1 μM / agonistic activity in reporter gene assay at 1 μM: Sf-9 cells, luciferase reporter; for agonist/antagonist classification: binding assay combined with reporter gene assay
T2 sequence (Q8MWR2 1-403): T1 sequence (Q8MWR2 1-403)
Description: The reporter gene assay was performed in Sf-9 cells according to a previously reported method.[46] Briefly, a reporter plasmid was constructed from pBmbA/hsp27/firefly luciferase (hsp27/Fluc), in which seven repeats of hsp27 ecdysone response element were inserted. This plasmid was a kind gift from Dr. Luc Swevers (Institute of Biosciences & Applications, National Center for Scientific Research “Demokritos”, Athens, Greece). The plasmid was amplified in Escherichia coli and purified using a QIAGEN plasmid midi kit (QIAGEN GmbH, Hilden, Germany). A cell suspension (approximately 2.0 × 10^6 cells/mL; 400 μL) was added to each well of a 24-well plate, and it was incubated for 1 h. Then, 200 μL of a mixture of plasmids and TransFast transfection reagent (Promega; Madison, WI, USA) was added to each well. After incubating for 24 h, 6 μL of a solution of test compound (1% v/v) was added and incubated. After 48 h, the medium in each well was removed with a pipet. Cells were lysed by adding 100 μL/well of Passive Lysis Buffer and incubating for 15 min at 25 °C. The lysate (20 μL) was transferred to a 96-well microplate for the luciferase assay. Chemical luminescence was measured using a 96-microplate GLOMAX luminometer (Promega), according to the manufacturer’s instructions.

[2] = pIC50 (M), ecdysteroid receptor binding affinity

Row | Compound | IC50 [1, 2] [M] | inhibition at 25 µM [1] [%] | agonistic activity in reporter gene assay at 0.1 μM (EcR) | EcR binding activity in words [1] | further results
1 | CC(C)CC[C@@H](O)[C@](C)(O)[C@H]1CC[C@@]2(O)C3=CC(=O)[C@@H]4C[C@@H](O)[C@@H](O)C[C@]4(C)[C@H]3CC[C@]12C [PonA, ponasterone A, reference compound] | 8.91e-09 |  |  |  | 
2 | C/C(=N\O)[C@H]1CC[C@@]2(O)C3=CC(=O)[C@@H]4C[C@@H](O)[C@@H](O)C[C@]4(C)[C@H]3CC[C@]12C [Compound 16, poststerone 20(E)-oxime] | > 2.51e-05 | 4.3 |  |  | 
3 | CC(C)CCC(=O)[C@](C)(O)[C@H]1CC[C@@]2(O)C3=CC(=O)[C@@H]4C[C@@H](O)[C@@H](O)C[C@]4(C)C3=CC[C@]12C [Compound 6, 22-Oxodacryhainansterone] |  |  | did not show agonistic activity | moderate | agonistic activity in reporter gene assay at 1 μM (EcR): agonists; pIC50 [1]: 6.42
4 | CC(C)CC[C@@H](O)[C@](C)(O)[C@H]1CC[C@@]2(O)C3=CC(=O)[C@@H]4C[C@@H](O)[C@@H](O)C[C@]4(C)C3=CC[C@]12C [Compound 12, dacryhainansterone] | 2.29e-08 |  | agonists | strong | 
5 | CC(C)(O)CC[C@@H](O)[C@](C)(O)[C@H]1CC[C@@]2(O)C3=CC(=O)[C@H]4C[C@@H](O)[C@@H](O)C[C@]4(C)[C@@]3(O)CC[C@]12C [Compound 21, 5α-9α,20-dihydroxyecdysone] | > 2.51e-05 | 27.1 |  | very weak activity | 
6 | CC(C)CC[C@@H](O)[C@](C)(O)[C@H]1CC[C@H]2C3=CC(=O)[C@@H]4C[C@@H](O)[C@@H](O)C[C@]4(C)C3=CC[C@]12C [Compound 5, 14-Deoxydacryhainansterone] |  |  | agonists | strong | pIC50 [1]: 7.38; EcR binding potency/affinity relative to 20E [1]: approximately 4 times
7 | CC(C)(O)CC[C@@H](O)[C@](C)(O)[C@H]1CC[C@H]2C3=CC(=O)[C@H]4C[C@@H](O)[C@@H](O)C[C@]4(C)[C@H]3CC[C@]12C [Compound 9, 5α-14-Deoxy-20-hydroxyecdysone] | > 2.51e-05 | 0.93 |  | very weak activity | 
8 | CC(C)(O)CC[C@@H](O)[C@](C)(O)[C@H]1CC[C@H]2C3=CC(=O)[C@@H]4C[C@@H](O)[C@@H](O)C[C@]4(C)C3=CC[C@]12C [Compound 7, 14-Deoxy-25-hydroxydacryhainansterone] | 4.79e-07 |  | did not show agonistic activity | moderate | agonistic activity in reporter gene assay at 1 μM (EcR): agonists
9 | CC(C)(O)CC[C@@H](O)[C@](C)(O)[C@H]1CC[C@@]2(O)C3=CC(=O)[C@@H]4C[C@@H](O)[C@@H](O)C[C@]4(C)[C@H]3CC[C@]12C [20E, 20-hydroxyecdysone, reference compound] |  |  |  |  | IC50 ([1]; read-out: pIC50 (M), ecdysteroid receptor binding affinity (converted)): 1.66e-07 M
10 | CCC1(CC)O[C@H]2C[C@@]3(C)[C@@H](C[C@H]2O1)C(=O)C=C1[C@@H]3CC[C@]2(C)[C@@H]([C@@](C)(O)[C@H](O)CCC(C)(C)O)CC[C@@]12O [Compound 19, 28,28-diethyl-2,3-methylidene-20-hydroxyecdysone] | 3.02e-06 |  |  |  | agonistic activity in reporter gene assay at 1 μM (EcR): did not activate the reporter gene; agonist/antagonist classification (EcR): ecdysteroid antagonists
11 | CC(C)(O)CC[C@@H](O)[C@](C)(O)[C@H]1CC[C@H]2C3=CC(=O)[C@@H]4C[C@@H](O)[C@@H](O)C[C@]4(C)[C@H]3CC[C@]12C [Compound 8, 14-Deoxy-20-hydroxyecdysone] | 6.92e-08 |  | agonists |  | EcR binding potency/affinity relative to 20E [1]: 2.4 times
12 | CC(C)(O)CC[C@@H](O)[C@](C)(O)[C@H]1CC[C@@H]2C3=CC(=O)[C@@H]4C[C@@H](O)[C@@H](O)C[C@]4(C)[C@H]3CC[C@@]21C [Compound 10, 14β-14-Deoxy-20-hydroxyecdysone] | > 2.51e-05 | 18.2 |  |  | 
13 | CC1(C)CC[C@H]([C@](C)(O)[C@H]2CC[C@@]3(O)C4=CC(=O)[C@@H]5C[C@@H](O)[C@@H](O)C[C@]5(C)[C@H]4CC[C@]23C)O1 [Compound 13, shidasterone] | 2.51e-06 |  |  |  | agonistic activity in reporter gene assay at 1 μM (EcR): did not activate the reporter gene; agonist/antagonist classification (EcR): ecdysteroid antagonists
14 | CC(C)(O)CC[C@@H](O)[C@](C)(O)[C@H]1CC[C@@]2(O)C3=CC(=O)[C@H]4C[C@@H](O)C[C@@H](O)[C@]4(C)[C@H]3CC[C@]12C [Compound 15, 5α-2-deoxyintegristerone A] | > 2.51e-05 | 2.42 |  | very weak activity | 
15 | CC(C)(O)CC[C@@H](O)[C@](C)(O)[C@H]1CC[C@@H]2C3=C(CC[C@@]21C)[C@@]1(C)C[C@H](O)[C@H](O)CC1=C(O)C3=O [Compound 4, 14β-14,15-Dihydrocalonysterone] | ~2.51e-05 | 49.8 |  |  | 
16 | CC(C)(O)CC[C@@H](O)[C@](C)(O)[C@H]1CC=C2C3=C(CC[C@@]21C)[C@@]1(C)C[C@H](O)[C@H](O)CC1=C(O)C3=O [Compound 11, calonysterone] | > 2.51e-05 | 0 |  |  | 
17 | CC(C)CC[C@@H](O)[C@](C)(O)[C@H]1CC[C@@]2(O)C3=CC(=O)[C@@H]4C[C@@H](O)[C@@H](O)C[C@]4(C)[C@H]3[C@H](O)C[C@]12C [Compound 14, ajugasterone C] | 6.46e-07 |  | agonists |  | 
18 | CC(C)(O)CC[C@@H](O)[C@](C)(O)[C@H]1CC[C@@]2(O)C3=CC(=O)[C@@H]4C[C@@H](O)[C@@H](O)C[C@]4(C)[C@@]3(O)CC[C@]12C [Compound 20, 9α,20-dihydroxyecdysone] | > 2.51e-05 | 45.7 |  |  | 
19 | CC(C)(O)CC[C@@H](O)[C@](C)(O)[C@H]1CC[C@@]2(O)C3=C/C(=N\O)[C@@H]4C[C@@H](O)[C@@H](O)C[C@]4(C)[C@H]3CC[C@]12C [Compound 18, 20-hydroxyecdysone 6(E)-oxime] | ~2.51e-05 | 60.1 |  |  | 
20 | CC(C)(O)CC[C@@H](O)[C@](C)(O)[C@H]1CC[C@@]2(O)C3=C/C(=N/O)[C@@H]4C[C@@H](O)[C@@H](O)C[C@]4(C)[C@H]3CC[C@]12C [Compound 17, 20-hydroxyecdysone 6(Z)-oxime] | > 2.51e-05 | 4.53 |  |  | 
